# Literature values in patent US9034830B2, “Methods and compositions for sustained delivery of drugs” (INTRATUS, INC., priority 2009, dated 2015).
# Tested on: patients
smiles,measurement,setting,value
Brc1c(NC2=NCCN2)ccc2nccnc12 [Brimonidine],more patients who had to discontinue due to lack of clinical effect,"0.2% eye drop, FDA clinical data",30%
same,drop in intraocular pressure,"eye drop, dosed at least two times a day",~24%
same,"patients with side-effects (itching, redness, intolerance) necessitating stoppage of the drug","eye drop, per FDA data",up to 20%
